For the first assay, the target named is human α-thrombin (Homo sapiens (Human), UniProt P00734). Put plainly: In vitro assay for determining proteinase inhibition (thrombin Ki). It is filed as biochemical.
Settings: not given
The method, then:
NMR determinations were made using 400 MHz field strength. Ki data was obtained according to the procedure described in Lewis, et al. Thromb. […] Reactions sensitive to moisture or air were performed under nitrogen or argon using anhydrous solvents and reagents. […] Typically, the analytical LC-MS system used consisted of a Waters ZQ platform with electrospray ionization in positive ion detection mode with an Agilent 1100 series HPLC with autosampler. The column was usually a Water Xterra MS C18, 3.0×50 mm, 5 μm. The flow rate was 1 mL/min, and the injection volume was 10 μL. UV detection was in the range 210-400 nm. […] Preparative HPLC purifications were usually performed using a mass spectrometry directed system. […] The mobile phases consisted of mixtures of acetonitrile (10-100%) in water containing 0.1% TFA. Flow rates were maintained at 50 mL/min, the injection volume was 1800 μL, and the UV detection range was 210-400 nm. Mobile phase gradients were optimized for the individual compounds. Reactions performed using microwave irradiation were normally carried out using an Emrys Optimizer manufactured by Personal Chemistry, or an Initiator manufactured by Biotage. Concentration of solutions was carried out on a rotary evaporator under reduced pressure. Flash chromatography was usually performed using a Biotage Flash Chromatography apparatus (Dyax Corp.) on silica gel ([…], 60 Å pore size) in pre-packed cartridges of the size noted. ^1H NMR spectra were acquired at 500 MHz spectrometers in CDCl3 solutions unless otherwise noted. Chemical shifts were reported in parts per million (ppm). Tetramethylsilane (TMS) was used as internal reference in CD3Cl solutions, and residual CH3OH peak or TMS was used as internal reference in CD3OD solutions. Coupling constants (J) were reported in hertz (Hz). Chiral analytical chromatography was performed on one of Chiralpak AS, Chiralpak AD, Chiralcel OD, Chiralcel IA, or Chiralcel OJ columns (250×4.6 mm) (Daicel Chemical Industries, Ltd.) with noted percentage of either ethanol in hexane (% Et/Hex) or isopropanol in heptane (% IPA/Hep) as isocratic solvent systems. Chiral preparative chromatography was conducted on one of Chiralpak AS, Chiralpak AD, Chiralcel OD, Ciralcel IA, or Chiralcel OJ columns (20×250 mm) (Daicel Chemical Industries, Ltd.) with desired isocratic solvent systems identified on chiral analytical chromatography or by supercritical fluid (SFC) conditions. Celite® (Fluka) diatomite is diatomaceous earth, and can be referred to as “celite”.
Relevant in vitro assays are referenced in Morrissette, et al., Bioorg. […] The assays were carried out at 25° C. in 0.05 M TRIS buffer pH 7.4, 0.15 M NaCl, 0.1% PEG. Trypsin assays also contained 1 mM CaC12.
Concentrations of stock solutions of Z-GPR-afc were determined from measurements of absorbance at 380 nm of the 7-amino-4-trifluoromethyl coumarin produced upon complete hydrolysis of an aliquot of the stock solution by thrombin.
Activity assays were performed by diluting a stock solution of substrate at least tenfold to a final concentration ≦0.1 Km into a solution containing enzyme or enzyme equilibrated with inhibitor. Times required to achieve equilibration between enzyme and inhibitor were determined in control experiments. Initial velocities of product formation in the absence (Vo) or presence of inhibitor (Vi) were measured. Assuming competitive inhibition, and that unity is negligible compared Km/[S], [I]/e, and [I]/e (where [S], [I], and e respectively represent the total concentrations, of substrate, inhibitor and enzyme), the equilibrium constant (Ki) for dissociation of the inhibitor from the enzyme can be obtained from the dependence of Vo/Vi on [I] shown in the following equation.
For the compound `NCc1ccc(Cl)cc1CNC(=O)[C@@H]1CCN1C(=O)C1OCc2ccccc21` (stereo partly drawn) [Compound 33-7, (2S)-N-{2-(Aminomethyl)-5-chlorobenzyl}-1-(1,3-dihydroisobenzofuran-1-carbonyl)azetidine-2-carboxamide-2,2,2-trifluoroacetate], the Ki (in general, the dissociation constant of the complex between target and ligand, obtained from inhibition or displacement) is 0.039 µM.

In the case of `NCc1ccc(Cl)cc1CNC(=O)[C@@H]1CCCN1C(=O)[C@H]1CCCO1` [Compound 38-4, (S)—N-{2-(Aminomethyl)-5-chlorobenzyl}-1-{(R)-tetrahydrofuran-2-carbonyl}pyrrolidine-2-carboxamide-2,2,2-trifluoroacetate], the affinity corresponds to a Ki of 0.1 µM.

Compound `NCc1ccc(Cl)cc1CNC(=O)[C@@H]1CCN1C(=O)C1(O)CCc2ncccc21` (stereo partly drawn) [Compound 26-12, (2S)-N-{2-(Aminomethyl)-5-chlorobenzyl}-1-(5-hydroxy-6,7-dihydro-5H-cyclopenta[b]pyridine-5-carbonyl)azetidine-2-carboxamide bis(2,2,2-trifluoroacetate)] came in with a Ki of 0.325 µM.

The compound `NCc1ccc(Cl)cc1CNC(=O)[C@@H]1CCCN1C(=O)c1cc(-c2ccncc2)c[nH]1` [Compound 13-10, (S)—N-{2-(Aminomethyl)-5-chlorobenzyl)-1-{4-(pyridin-4-yl)-1H-pyrrole-2-carbonyl) pyrrolidine-2-carboxamide-bis(2,2,2-trifluoroacetate)] showed a Ki of 0.0034 µM.

Staying with this assay, now noted: 25° C., 0.05 M TRIS buffer pH 7.4, 0.15 M NaCl, 0.1% PEG; competitive inhibition assumed.
Consider `CCOC(=O)c1ccc(C(=O)N2CCC[C@H]2C(=O)NCc2cc(Cl)ccc2CN)[nH]1` [Compound 3-5, (S)-Ethyl-5-[2-{(2-(aminomethyl)-5-chlorobenzyl)carbamoyl}-pyrrolidine-1-carbonyl]-1H-pyrrole-2-carboxylate-2,2,2-trifluoroacetate], for which affinity was put at a Ki of 0.047 µM.

As for `NCc1ccc(Cl)cc1CNC(=O)[C@@H]1CCCN1C(=O)c1cc(-c2ccccn2)c[nH]1` [Compound 15-8, (S)—N-[{2-(Aminomethyl)-5-chlorobenzyl}-1-{4-(pyridin-2-yl)-1H-pyrrole-2-carbonyl}]pyrrolidine-2-carboxamide bis (2,2,2-trifluoroacetate)], affinity was put at a Ki of 0.022 µM.

The compound `Cc1ccc(C(=O)N2CCC[C@@]2(C)C(=O)NCc2cc(Cl)ccc2CN)[nH]1` [Compound 45, (S)-N-(2-(aminomethyl)-5-chlorobenzyl)-2-methyl-1-(5-methyl-1H-pyrrole-2-carbonyl)pyrrolidine-2-carboxamide] yielded a Ki of 0.093 µM.

The compound `NCc1ccc(Cl)cc1CNC(=O)[C@@H]1CCCN1C(=O)C1NCc2ccccc21` (single isomer, unassigned) [Compound 23-4b, bis(2,2,2-trifluoroacetate)] registered an inhibition constant (Ki) of 0.0011 µM.

`NCc1ccc(Cl)cc1CNC(=O)[C@@H]1CCN1C(=O)C1CNc2ccccc21` (stereo partly drawn) [Compound 35-7, (2S)-N-{2-(Aminomethyl)-5-chlorobenzyl}-1-(indoline-3-carbonyl)azetidine-2-carboxamide bis(2,2,2-trifluoroacetate)] had a Ki of 0.11 µM.

For `NCc1ccc(Cl)cc1CNC(=O)[C@@H]1CCCN1C(=O)c1ncccn1` [Compound 42-3, (S)—N-(2-(Aminomethyl)-5-chlorobenzyl)-1-(pyrimidine-2-carbonyl)pyrrolidine-2-carboxamide bis(2,2,2-trifluoroacetate)], the affinity corresponds to a Ki of 0.26 µM.

`NCc1ccc(Cl)cc1CNC(=O)[C@@H]1CCCN1C(=O)C1(O)CCc2cccnc21` (stereo partly drawn) [Compound 20-8, (2S)-N-(2-(Aminomethyl)-5-chlorobenzyl)-1-(7-hydroxy-6,7-dihydro-5H-cyclopenta[b]pyridine-7-carbonyl)pyrrolidine-2-carboxamide-bis(2,2,2-trifluoroacetate)] returned a Ki of 0.0077 µM.

In turn, `NCc1ccc(Cl)cc1CNC(=O)[C@@H]1CCCN1C(=O)C1(O)CCCc2cccnc21` (stereo partly drawn) [Compound 32-7, (2S)-N-{2-(aminomethyl)-5-chlorobenzyl}-1-(8-hydroxy-5,6,7,8-tetrahydroquinoline-8-carbonyl)pyrrolidine-2-carboxamide bis(2,2,2-trifluoroacetate)] displayed a Ki of 0.0039 µM.

For the compound `NCc1ccc(Cl)cc1CNC(=O)[C@@H]1CCCN1C(=O)C1(O)CCCc2ncccc21` (stereo partly drawn) [Compound 30-6, (2S)-N-{2-(Aminomethyl)-5-chlorobenzyl}-1-(5-hydroxy-5,6,7,8-tetrahydroquinoline-5-carbonyl)pyrrolidine-2-carboxamide bis(2,2,2-trifluoroacetate)], the affinity, expressed as Ki, was 0.011 µM.

`C[C@@]1(C(=O)NCc2cc(Cl)ccc2CN)CCCN1C(=O)c1ccc(Cl)[nH]1` [Compound 44, (S)-N-(2-(aminomethyl)-5-chlorobenzyl)-1-(5-chloro-1H-pyrrole-2-carbonyl)-2-methylpyrrolidine-2-carboxamide]: the Ki is 0.104 µM.

On to `NCc1ccc(Cl)cc1CNC(=O)[C@@H]1CCCN1C(=O)c1cc(C(=O)c2cccnc2)c[nH]1` [Compound 8-8, (S)—N-{2-(aminomethyl)-5-chlorobenzyl}-1-(4-nicotinoyl-1H-pyrrole-2-carbonyl)pyrrolidine-2-carboxamide-bis(2,2,2-trifluoro acetate], for which the Ki was 0.018 µM.

In turn, `NCc1ccc(Cl)cc1CNC(=O)[C@@H]1CCCN1C(=O)c1cc(C(O)c2cccnc2)c[nH]1` (stereo partly drawn) [Compound 9-2, (2S)-N-{2-(Aminomethyl)-5-chlorobenzyl}-1-[4-{hydroxy(pyridine-3-yl)methyl}-1H-pyrrole-2-carbonyl]pyrrolidine-2-carboxamide] displayed a Ki of 0.013 µM.

Regarding `NCc1ccc(Cl)cc1CNC(=O)[C@@H]1CCCN1C(=O)C1NCc2ccccc21` (single isomer, unassigned) [Compound 23-4a, bis(2,2,2-trifluoroacetate)], affinity was put at a Ki of 0.077 µM.

Consider `NCc1ccc(Cl)cc1CNC(=O)[C@@H]1CCCN1C(=O)c1cc(Cc2ccncc2)c[nH]1` [Compound 7-1, (S)—N-{2-(Aminomethyl)-5-chlorobenzyl}-1-{4-(pyridin-4-ylmethyl)-1H-pyrrole-2-carbonyl}pyrrolidine-2-carboxamide-bis(2,2,2-trifluoroacetate)], for which the Ki stood at 0.017 µM.

`NCc1ccc(Cl)cc1CNC(=O)[C@@H]1CCCN1C(=O)C1COc2ccccc21` (stereo partly drawn) [Compound 24-8, (2S)-N-{2-(Aminomethyl)-5-chlorobenzyl}-1-(2,3-dihydrobenzofuran-3-carbonyl)pyrrolidine-2-carboxamide-2,2,2-trifluoroacetate] came in with an inhibitory constant (Ki) of 0.0092 µM.

Consider `O=C(NCc1cc(Cl)ccc1-n1cnnn1)[C@@H]1CCCN1C(=O)C1(O)CCc2cccnc21` (stereo partly drawn) [Compound 36-3, (2S)-N-{5-Chloro-2-(1H-tetrazol-1-yl)benzyl}-1-(7-hydroxy-6,7-dihydro-5H-cyclopenta[b]pyridine-7-carbonyl)pyrrolidine-2-carboxamide], for which the Ki was 0.0025 µM.

In turn, `NCc1ccc(Cl)cc1CNC(=O)[C@@H]1CCCN1C(=O)C1OCc2ccccc21` (stereo partly drawn) [Compound 21-6, (2S)-N-{2-(Aminomethyl)-5-chlorobenzyl}-1-(1,3-dihydroisobenzofuran-1-carbonyl)pyrrolidine-2-carboxamide-2,2,2-trifluoroacetate] came in with a Ki of 0.015 µM.

Turning to `NCc1ccc(Cl)cc1CNC(=O)[C@@H]1CCCN1C(=O)C1(O)CCc2cnccc21` (stereo partly drawn) [Compound 27-9], affinity was put at a Ki of 0.02 µM.

In the case of `NCc1ccc(Cl)cc1CNC(=O)[C@@H]1CCCN1C(=O)c1cc(C(=O)c2ccccn2)c[nH]1` [Compound 10-7, (S)—N-{2-(Aminomethyl)-5-chlorobenzyl}-1-(4-picolinoyl-1H-pyrrole-2-carbonyl) pyrrolidine-2-carboxamide-bis(2,2,2-trifluoroacetate)], the Ki turned out to be 0.017 µM.

`NCc1ccc(Cl)cc1CNC(=O)[C@@H]1CCCN1C(=O)c1ccc(C(F)(F)F)[nH]1` [Compound 4-5, (S)—N-{2-(Aminomethyl)-5-chlorobenzyl}-1-{5-(trifluoromethyl)-1H-pyrrole-2-carbonyl}pyrrolidine-2-carboxamide]: the affinity corresponds to a Ki of 0.027 µM.

For the origin of these results see US9469608B2, “Thrombin inhibitors” (Merck Sharp & Dohme Corp., priority 2012, dated 2016).
